Measurements: patent publication US7407946B2, “Quinazoline compounds” (AstraZeneca AB, priority 2002, dated 2008)

Tests used:
Aurora-A = target: T1, Aurora-A (Homo sapiens, UniProt O14965); test: In vitro Aurora-A kinase inhibition test; format: biochemical
T1 construct: 6 histidine residues, spacer region and rTEV protease cleavage site (pFastBac HTc) (N); made in house; host or cells: Spodoptera frugiperda Sf21 insect cells (baculovirus)
T1 sequence (O14965 1-403): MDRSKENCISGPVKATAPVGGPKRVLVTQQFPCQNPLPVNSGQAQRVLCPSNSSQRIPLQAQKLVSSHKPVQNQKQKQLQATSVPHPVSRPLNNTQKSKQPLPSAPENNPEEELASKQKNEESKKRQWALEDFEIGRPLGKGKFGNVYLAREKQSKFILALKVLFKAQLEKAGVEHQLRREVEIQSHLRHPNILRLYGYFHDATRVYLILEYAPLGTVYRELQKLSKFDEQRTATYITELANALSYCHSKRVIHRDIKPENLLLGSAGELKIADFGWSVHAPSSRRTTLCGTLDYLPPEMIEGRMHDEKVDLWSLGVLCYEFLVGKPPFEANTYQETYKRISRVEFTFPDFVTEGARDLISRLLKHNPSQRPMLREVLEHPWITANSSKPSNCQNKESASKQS

SW620 cells = test: In vitro cell cycle analysis assay; format: cell-based, human; conditions: 24 hours with compound, DNA content by FACS
Procedure: (d) In Vitro Cell Cycle Analysis Assay
This assay determines the ability of a test compound to arrest cells in specific phases of the cell cycle. Many different mammalian cell lines could be used in this assay and SW620 cells are included here as an example. SW620 cells were seeded at 7×10^5 cells per T25 flask (Costar) in 5 ml L-15 (5% FCS, 1% L-glutamine). Flasks were then incubated overnight in a humidified 37° C. incubator with 5% CO2. The following day, 5 μl of L-15 (5% FCS, 1% L-glutamine) carrying the appropriate concentration of test compound solubilised in DMSO was added to the flask. A no compound control treatments was also included (0.5% DMSO). The cells were then incubated for a defined time (24 hours) with compound. […]
Each sample was then syringed 10 times using 21-guage needle. The samples were then transferred to LPS tubes and DNA content per cell analysed by Fluorescence activated cell sorting (FACS) using a FACScan flow cytometer (Becton Dickinson). Typically 30,000 events were counted and recorded using CellQuest v1.1 software (Verity Software). Cell cycle distribution of the population was calculated using Modfit software (Verity Software) and expressed as percentage of cells with 2N (G0/G1), 2N-4N (S phase) and with 4N (G2/M) DNA content.

SW620 = test: In vitro cell proliferation assay (BrdU incorporation); format: cell-based; conditions: Homo sapiens, SW-620; SW620, 48 hours with compound, 2 hour BrdU labelling; read-out: active at (concentration giving 50% inhibition of BrdU incorporation)
Description: (c) In Vitro Cell Proliferation Assay
This and other assays can be used to determine the ability of a test compound to inhibit the growth of adherent mammalian cell lines, for example the human tumour cell line SW620 (ATCC CCL-227). This assay determines the ability of at test compound to inhibit the incorporation of the thymidine analogue, 5′-bromo-2′-deoxy-uridine (BrdU) into cellular DNA. SW620 or other adherent cells were typically seeded at 1×10^5 cells per well in L-15 media (GIBCO) plus 5% foetal calf serum, 1% L-glutamine (100 μl/well) in 96 well tissue culture treated 96 well plates (Costar) and allowed to adhere overnight. […] The optical density of the wells was then determined at 690 nm wavelength using a Titertek Multiscan plate reader. […]

Aurora-B = target: T2, Aurora-B (Homo sapiens, UniProt Q96GD4); test: In vitro Aurora-B kinase inhibition test; format: biochemical; conditions: recombinant Aurora-B, [γ33P]ATP, peptide substrate, 60 minutes at room temperature; read-out: concentration giving 50% inhibition of enzyme activity
T2 construct: 6-histidine; made in house; host or cells: Spodoptera frugiperda Sf21 insect cells (baculovirus)
T2 sequence (Q96GD4 whole entry): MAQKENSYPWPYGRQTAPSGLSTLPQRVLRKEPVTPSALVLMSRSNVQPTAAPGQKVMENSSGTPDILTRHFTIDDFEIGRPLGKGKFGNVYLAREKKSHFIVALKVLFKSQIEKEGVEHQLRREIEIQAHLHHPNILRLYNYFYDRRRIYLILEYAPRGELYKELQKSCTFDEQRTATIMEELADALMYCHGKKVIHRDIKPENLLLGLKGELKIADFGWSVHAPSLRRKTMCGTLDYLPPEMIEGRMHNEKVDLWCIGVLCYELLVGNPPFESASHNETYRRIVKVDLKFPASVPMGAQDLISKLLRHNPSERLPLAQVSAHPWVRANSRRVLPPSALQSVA
Description: (b) In Vitro Aurora-B Kinase Inhibition Test
This assay determines the ability of a test compound to inhibit serine-threonine kinase activity. DNA encoding Aurora-B may be obtained by total gene synthesis or by cloning. This DNA may then be expressed in a suitable expression system to obtain polypeptide with serine-threonine kinase activity. In the case of Aurora-B, the coding sequence was isolated from cDNA by polymerase chain reaction (PCR) and cloned into the pFastBac system in a manner similar to that described above for Aurora-A (i.e. to direct expression of a 6-histidine tagged Aurora-B protein).
For the large scale expression of Aurora-B kinase activity, Sf21 insect cells were grown at 28° C. in TC100 medium supplemented with 10% foetal calf serum (Viralex) and 0.2% F68 Pluronic (Sigma) on a Wheaton roller rig at 3 r.p.m. When the cell density reached 1.2×10^6 cells ml^−1 they were infected with plaque-pure Aurora-B recombinant virus at a multiplicity of infection of 1 and harvested 48 hours later. All subsequent purification steps were performed at 4° C. […]

COc1cc2c(Nc3ncc(CC(=O)Nc4cccc(F)c4)s3)ncnc2cc1OCCCN1CCC[C@@H]1COP(=O)(O)O [Compound 2, ((2R)-1-(3-((4-((5-(2-((3-fluorophenyl)amino)-2-oxoethyl)-1,3-thiazol-2-yl)amino)-6-methoxyquinazolin-7-yl)oxy)propyl)pyrrolidin-2-yl)methyl dihydrogen phosphate]
IC50 (Aurora-A): 10.2 nM
active at (cell cycle analysis, arrest of cells in specific phases) (SW620 cells): 20 nM
IC50 (SW620): 6 nM
IC50 (Aurora-B): 9 nM
